Measured values reported in the supplement of paper PMC6580486.

System: U23674 (mouse alveolar rhabdomyosarcoma primary culture)
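Also: alveolar rhabdomyosarcoma tumor culture.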

Row | SMILES | IC50 cell viability [µM]
1 | C[C@@H](Oc1cc(-n2cnc3ccc(OCC4CCN(C)CC4)cc32)sc1C(N)=O)c1ccccc1Cl | 1.3
2 | COc1ccc(-c2nn3ncccc3c2-c2ccnc(Nc3cccc(C(F)(F)F)c3)n2)cc1 | > 10
3 | NS(=O)(=O)c1cccc(-c2ccc3c(NC(=O)C4CC4)n[nH]c3c2)c1 | > 10
4 | COc1cc2c(cc1Nc1nc(Nc3ccsc3C(N)=O)c3cc[nH]c3n1)N(C(=O)CN(C)C)CCC2(C)C | 0.4
5 | NS(=O)(=O)c1ccc(Nc2cc(-c3ccc(O)c(F)c3)[nH]n2)cc1 | > 10
6 | CS(=O)(=O)CCN(CC#N)Cc1ccc(-c2ccc3ncnc(Nc4ccc(OCc5cccc(F)c5)c(Cl)c4)c3c2)o1 | > 10
7 | CCn1c(-c2nonc2N)nc2c(C#CC(C)(C)O)nc(CN3CCCC3)cc21 | > 10
8 | Cn1cc(C=C2C(=O)Nc3cccnc32)c2ccccc21 | > 10
9 | CCCN1CCCC(c2ccc(Nc3nc(Nc4cc(F)ccc4C(N)=O)c4cc[nH]c4n3)c(OC)c2)C1 (stereo not given) | 1.4
10 | NC(=O)c1sc(-n2cnc3cc(C(F)(F)F)ccc32)cc1OCc1ccccc1Br | > 10
11 | NS(=O)(=O)c1ccc(N=Nc2c(O)[nH]c3ccc(C(=O)NCc4ccncc4)cc23)cc1 | > 10
12 | N#Cc1c(NC(=O)CN2CCOCC2)sc2c1CCCC2 | > 10
13 | COc1ccc2ncn(-c3cc(O[C@H](C)c4ccccc4Cl)c(C(N)=O)s3)c2c1 | 2
14 | COc1cccc(COc2cc(-n3cnc4ccccc43)sc2C(N)=O)c1 | > 10
15 | CN1CCC(n2cnc(-c3ccc(F)cc3)c2-c2ccnc(NCCO)n2)CC1 | > 10
16 | NS(=O)(=O)c1ccc(N=Nc2c(O)[nH]c3ccc(-c4cnco4)cc23)cc1 | > 10
17 | Fc1ccc(-c2ncn(C3CCNCC3)c2-c2ccnc(Oc3ccc4c(c3)OCO4)n2)cc1 | > 10
18 | COc1cc(N2CCN(C(C)C)CC2)ccc1Nc1nc(Nc2cccc3ncccc23)c2cc[nH]c2n1 | > 10
19 | COc1cc(Nc2nccc(-c3cnn4ncccc34)n2)cc(OC)c1 | 4
20 | COc1cc2c(cc1Nc1nc(Nc3cccc(F)c3C(N)=O)c3cc[nH]c3n1)N(C(=O)CN1CCN(C(C)C)CC1)CC2 | 3.2
21 | COc1cc(C)c(N(C)C(=O)CN(C)C)cc1Nc1nc(Nc2cccc(F)c2C(N)=O)c2cc[nH]c2n1 | > 10
22 | Oc1[nH]c2ccccc2c1C=Nc1ccc(-n2cncn2)cc1 | > 10
23 | O=C(Nc1n[nH]c2nc(-c3ccc(O)cc3)c(Br)cc12)C1CC1 | > 10
24 | Cc1cccc(Nc2ncc(-c3ccccc3)o2)c1 | > 10

Row | SMILES | IC50 cell viability [µM]
25 | COc1cc(Nc2nccc(Nc3ccc4c(C)[nH]nc4c3)n2)cc(OC)c1OC | 5.6
26 | c1ccc(-c2[nH]ncc2-c2ccnc(-c3ccc(OCCN4CCOCC4)cc3)c2)nc1 | > 10
27 | COc1ccc(-c2coc3ncnc(N)c23)cc1 | > 10
28 | O=C1NC(=O)C(N2CCc3ccccc32)=C1c1ccc(Cl)cc1 | > 10
29 | CN(C)c1ccc2[nH]c(O)c(C=Nc3ccc(S(N)(=O)=O)cc3)c2c1 | > 10
30 | CS(=O)(=O)CCNCc1nc(-c2ccc3ncnc(Nc4ccc(OCc5cccc(C(F)(F)F)c5)cc4)c3c2)cs1 | > 10
31 | COc1cc(Nc2ncc3c(C)nc(-c4cccc(C(F)(F)F)c4)n3n2)cc(OC)c1OC | > 10
32 | Cc1ccc(C(=O)NC2CCC2)cc1-c1ccc(C(=O)NCC2CC2)cc1 | > 10
33 | NS(=O)(=O)c1ccc(-c2cc3ccncc3cc2OCc2ccccc2)cc1 | > 10
34 | CCN1CCC(CC(=O)Nc2n[nH]c3nc(-c4cccs4)c(Br)cc23)CC1 | 1.3
35 | CCNC(=O)O[C@H]1CN[C@H](C#Cc2cc3ncnc(Nc4ccc(OCc5cccc(F)c5)c(Cl)c4)c3s2)C1 | > 10
36 | COc1cccc(-n2ncc3c(N/N=C/c4ccncc4)ncnc32)c1 | > 10
37 | CC(C)c1ccc2c(N=Nc3ccc(S(N)(=O)=O)cc3)c(O)[nH]c2c1 | > 10
38 | CN1CCC(n2cnc(-c3ccc(F)cc3)c2-c2ccnc(N)n2)CC1 | > 10
39 | CN1CCN(Cc2ccc(-c3cc4ncnc(Nc5ccc(OCc6cccc(F)c6)c(Cl)c5)c4s3)o2)CC1 | > 10
40 | CCn1c(-c2nonc2N)nc2cnc(Oc3cccc(NC(=O)c4ccc(OCCN5CCOCC5)cc4)c3)cc21 | > 10
41 | OCc1ccc(-c2nc(-c3ccc4c(c3)OCO4)c(-c3ccccn3)[nH]2)cc1 | > 10
42 | CCS(=O)(=O)c1ccc(OC)c(Nc2ncc(-c3cccc(F)c3)o2)c1 | > 10
43 | NS(=O)(=O)c1ccc(N=Nc2c(O)[nH]c3ccc(Cl)cc23)cc1 | > 10
44 | Nc1nc(-c2ccc3c(c2)C(=Cc2cc(Br)c(O)c(Br)c2)C(=O)N3)cs1 | > 10
45 | NS(=O)(=O)c1cccc(-c2cc3ccncc3cc2OCc2ccccc2)c1 | > 10
46 | COc1ccc2cc(-c3c(-c4ccncc4)nc(-c4ccc([S+](C)[O-])cc4)n3C)ccc2c1 (stereo not given) | > 10
47 | NS(=O)(=O)c1ccc(N=Nc2c(O)[nH]c3ccc(C(=O)NCCc4cnc[nH]4)cc23)cc1 | > 10
48 | O=c1[nH]c2ccc(N=Cc3c(O)[nH]c4ccccc34)cc2[nH]1 | > 10

Row | SMILES | IC50 cell viability [µM]
49 | CCn1c(-c2nonc2N)nc2c(C#CC(C)(C)O)ncc(OC3CCNCC3)c21 | > 10
50 | COC(=O)Nc1nc2ccc(Oc3cccc(NC(=O)Nc4cc(C(F)(F)F)ccc4F)c3)cc2[nH]1 | > 10
51 | Clc1ccc(CNc2nccc(-c3cnn4ncccc34)n2)cc1 | > 10
52 | CNC(=O)c1cncc(/C=C/c2c(C)cccc2C)c1 | > 10
53 | O=C1Nc2ccccc2C1=C1CCc2cc(O)ccc21 | > 10
54 | O=C1Nc2ccc(I)cc2C1=Cc1cc(Br)c(O)c(Br)c1 | > 10
55 | O=C(Nc1n[nH]c2nc(-c3ccco3)ccc12)C1CC1 | > 10
56 | COc1cccc(-n2ncc3c(N/N=C/c4ccc(F)cc4)ncnc32)c1 | > 10
57 | CCOc1ccc2c(-c3ccnc(Nc4cccc(C(F)(F)F)c4)n3)cnn2n1 | > 10
58 | Cc1ccc(O)cc1Nc1ccnc2cc(-c3ccccn3)ccc12 | > 10
59 | CCCN1CCC(Oc2cc(Nc3nc(Nc4cccc(F)c4C(N)=O)c4cc[nH]c4n3)c(OC)cc2Cl)CC1 | 3.2
60 | Nc1nccc(-c2c(-c3ccc(F)cc3)ncn2CCCN2CCOCC2)n1 | > 10
61 | COc1cc(/C=N/Nc2ncnc3c2cnn3C(C)C)ccc1O | > 10
62 | CC(C)c1ccc(Nc2nccc(-c3cnn4ncccc34)n2)cc1 | > 10
63 | O=C(O[C@H]1CN[C@H](C#Cc2cc3ncnc(Nc4ccc(OCc5cccc(F)c5)c(Cl)c4)c3s2)C1)N1CCOCC1 | > 10
64 | Clc1ccc(-c2nn3ncccc3c2-c2ccnc(Nc3ccccc3)n2)cc1 | > 10
65 | Fc1ccc(-c2nn3ncccc3c2-c2ccnc(Nc3ccc4c(c3)OCCO4)n2)cc1 | > 10
66 | COc1cc2ncn(-c3cc(O[C@H](C)c4ccccc4Cl)c(C(N)=O)s3)c2cc1OC | 0.1
67 | Cc1ccc(C(=O)NC2CC2)cc1-c1ccc2[nH]ncc2c1 | > 10
68 | O=C1NC(=O)C(c2ccccc2Cl)=C1Nc1cccc(O)c1 | 2
69 | CCn1c(-c2nonc2N)nc2ccccc21 | > 10
70 | CCn1cc(-c2ccnc3[nH]ccc23)c(-c2cccc(NC(=O)Nc3ccc(OCc4ccccc4)cc3)c2)n1 | > 10
71 | CS(=O)(=O)CCNCc1ccc(-c2ccc3ncnc(Nc4ccc(OCc5cccc(F)c5)c(C(F)(F)F)c4)c3c2)o1 | 4.8
72 | COc1cccc(-n2ncc3c(N/N=C/c4ccc(C)cc4)ncnc32)c1 | > 10

Row | SMILES | IC50 cell viability [µM]
73 | CS(=O)(=O)CCNCc1ccc(-c2ccc3ncnc(Nc4ccc(OCc5ccccc5)c(Cl)c4)c3c2)o1 | > 10
74 | COc1ccc(COc2ccc(Cc3cnc(N)nc3N)cc2OC)cc1 | > 10
75 | O=C(Nc1n[nH]c2nnc(-c3cccnc3)cc12)C1CC1 | > 10
76 | CNC(=O)c1sc(-n2cnc3cc(OC)c(OC)cc32)cc1OCc1ccccc1C(F)(F)F | > 10
77 | COc1cc(N2CCN(C(C)C)CC2)ccc1Nc1nc(Nc2ccc(F)cc2C(=O)NC[C@@H](O)CO)c2cc[nH]c2n1 | > 10
78 | COC(=O)Nc1nc2ccc(S(=O)(=O)c3ccc(NC(=O)Nc4cc(C(F)(F)F)ccc4F)cc3)cc2[nH]1 | > 10
79 | Cc1nc(-c2ccccc2)n2nc(NCCCN3CCOCC3)ncc12 | > 10
80 | Fc1ccc(-c2ncn(C3CCNCC3)c2-c2ccnc(Oc3ccc(F)c(F)c3)n2)cc1 | 6.2
81 | NC(=O)c1cc(-c2ccncc2)cc(-c2ccccc2)c1N | > 10
82 | CCN1CCC(C(=O)Nc2n[nH]c3nnc(-c4cccc(F)c4F)cc23)CC1 | > 10
83 | Fc1ccc(-c2ncn(C3CCNCC3)c2-c2ccnc(Oc3ccc(Oc4ccccc4)cc3)n2)cc1 | 2
84 | CS(=O)(=O)CCNCc1ccc(-c2ccc3ncnc(Nc4ccc(OCc5ccccc5)c(Br)c4)c3c2)o1 | > 10
85 | CC(=O)NCc1cccc(C#Cc2cncnc2Nc2ccc(OCc3cccc(F)c3)c(Cl)c2)c1 | > 10
86 | Cc1nnc(-c2cccc(-c3ccc(C(=O)NCC4CC4)cc3)c2)o1 | > 10
87 | COc1cc2c(cc1Nc1nc(Nc3ccsc3C(N)=O)c3cc[nH]c3n1)N(C(=O)CN(C)C)CCC2 | 0.05
88 | COc1cc2ncn(-c3cc(OCc4ccccc4S(C)(=O)=O)c(C#N)s3)c2cc1OC | > 10
89 | Nc1nc(-c2ccccn2)c(-c2ccc3ncccc3n2)s1 | > 10
90 | COc1cc2c(cc1Nc1nc(N3CCc4ccccc43)c3cc[nH]c3n1)N(C(=O)CN(C)C)CC2 | 0.05
91 | CN(c1ccc(NC(=O)NCCN2CCOCC2)cc1)c1ccnc(Nc2ccc(CS(C)(=O)=O)cc2)n1 | > 10
92 | CC1=C(C(=O)Nc2ccc3[nH]ncc3c2)C(c2ccc(F)cc2)NC(=O)N1 (stereo not given) | > 10
93 | COc1cc(C)c(NC(=O)CN(C)C)cc1Nc1nc(Nc2cccc(F)c2C(N)=O)c2cc[nH]c2n1 | > 10
94 | NCc1ccc(-n2c(-c3nonc3N)nc3cnccc32)cc1 | 3.9
95 | O=S(=O)(CCNCc1ccc(-c2ccc3ncnc(Nc4ccc(OCc5cccc(F)c5)c(Cl)c4)c3c2)o1)c1ccccc1 | > 10
